The values below come from publication PMC2788670 (Journal of medicinal chemistry, 2009).

“Also recorded” adds a separate entry of the source.

Common to all, as to assay type: cell-based
In experiment [1] the test system is HIV-1 NL4-3. In words: HIV-1 NL4-3 single-round infection assay in TZM-bl cells. The following applies: 200 TCID50, 2 days, luciferase, average of 3 independent experiments, Inactive = TC50/IC50 < 2.
Experiment [2] deals with HIV-2 KR.X3. Description: HIV-2 KR.X3 single-round infection assay in TZM-bl cells. The settings on record: for IC50 (µM) HIV-2 KR.X3: TZM-bl cells, 200 TCID50, 2 days, luciferase, average of 3 independent experiments, Inactive = TC50/IC50 < 2; for reduction of anti-HIV-2 activity after glycine addition compared to precursor: 13 versus 8, 14 versus 9.
The test system of experiment [3] is HIV-2 KR.X3-YU-2/V3. Description: HIV-2 KR.X3-YU-2/V3 chimeric virus infection assay in TZM-bl cells. The settings on record: chimeric virus with V3 loop of HIV-1 YU-2; Figure 1, 4 independent experiments.

As for `C=C(C)[C@@H]1CC[C@]2(C(=O)O)CC[C@]3(C)[C@H](CC[C@@H]4[C@@]5(C)CC[C@H](O)C(C)(C)[C@@H]5CC[C@]43C)[C@@H]12` [Compound 1, Betulinic acid, reference compound], the “IC50 (µM) HIV-1 NL4-3” value in experiment [1] is reported as “did not exhibit anti-HIV-1 or anti-HIV-2 activity; also recorded: Inactive”. Further, the “IC50 (µM) HIV-2 KR.X3” value in experiment [2] is recorded as “did not exhibit anti-HIV-1 or anti-HIV-2 activity; also recorded: Inactive”.

On to `C=C(C)[C@@H]1CC[C@]2(C(=O)NCCCCCNC(C)=O)CC[C@]3(C)[C@H](CC[C@@H]4[C@@]5(C)CC[C@H](O)C(C)(C)[C@@H]5CC[C@]43C)[C@@H]12` [Compound 2], for which the “IC50 (µM) HIV-1 NL4-3” value in experiment [1] is given as “Inactive”. Besides, the “IC50 (µM) HIV-2 KR.X3” value in experiment [2] is recorded as “Inactive”. On to `C=C(C)[C@@H]1CC[C@]2(C(=O)NCCCCCCNC(C)=O)CC[C@]3(C)[C@H](CC[C@@H]4[C@@]5(C)CC[C@H](O)C(C)(C)[C@@H]5CC[C@]43C)[C@@H]12` [Compound 3], for which the “IC50 (µM) HIV-2 KR.X3” value in experiment [2] is “completely inactive”. Same read-out and setting: for `C=C(C)[C@@H]1CC[C@]2(C(=O)NCCCCCCCNC(C)=O)CC[C@]3(C)[C@H](CC[C@@H]4[C@@]5(C)CC[C@H](O)C(C)(C)[C@@H]5CC[C@]43C)[C@@H]12` [Compound 4, [[N-[3β-hydroxyl-lup-20(29)-en-28-oyl]-7-aminoheptyl]-carbamoyl]methane] the value was “Inactive”; for `C=C(C)[C@@H]1CC[C@]2(C(=O)NCCCCCCCCNC(C)=O)CC[C@]3(C)[C@H](CC[C@@H]4[C@@]5(C)CC[C@H](O)C(C)(C)[C@@H]5CC[C@]43C)[C@@H]12` [Compound 5], “Inactive”. The same measure, in the same setting: for `C=C(C)[C@@H]1CC[C@]2(C(=O)NCCCCCCNC(=O)CC(=O)O)CC[C@]3(C)[C@H](CC[C@@H]4[C@@]5(C)CC[C@H](O)C(C)(C)[C@@H]5CC[C@]43C)[C@@H]12` [Compound 6] the value was “Inactive”.

On to `C=C(C)[C@@H]1CC[C@]2(C(=O)NCCCC(=O)O)CC[C@]3(C)[C@H](CC[C@@H]4[C@@]5(C)CC[C@H](O)C(C)(C)[C@@H]5CC[C@]43C)[C@@H]12` [Compound 7], for which, in experiment [1], the “IC50 (µM) HIV-1 NL4-3” value is “Inactive”. For `C=C(C)[C@@H]1CC[C@]2(C(=O)NCCCCCCCC(=O)O)CC[C@]3(C)[C@H](CC[C@@H]4[C@@]5(C)CC[C@H](O)C(C)(C)[C@@H]5CC[C@]43C)[C@@H]12` [Compound 11], the “IC50 (µM) HIV-2 KR.X3” value in experiment [2] was “Inactive”.

For the compound `C=C(C)[C@@H]1CC[C@]2(C(=O)NCCCC(=O)NCC(=O)O)CC[C@]3(C)[C@H](CC[C@@H]4[C@@]5(C)CC[C@H](O)C(C)(C)[C@@H]5CC[C@]43C)[C@@H]12` [Compound 12], the “IC50 (µM) HIV-1 NL4-3” value in experiment [1] is “Inactive”. As for `C=C(C)[C@@H]1CC[C@]2(C(=O)NCCCCC(=O)NCC(=O)O)CC[C@]3(C)[C@H](CC[C@@H]4[C@@]5(C)CC[C@H](O)C(C)(C)[C@@H]5CC[C@]43C)[C@@H]12` [Compound 13], the “IC50 (µM) HIV-1 NL4-3” value in experiment [1] was “Inactive”. Also, the “reduction of anti-HIV-2 activity after glycine addition compared to precursor” value in experiment [2] is on record as “approximately 15 fold”. For `C=C(C)[C@@H]1CC[C@]2(C(=O)NCCCCCC(=O)NCC(=O)O)CC[C@]3(C)[C@H](CC[C@@H]4[C@@]5(C)CC[C@H](O)C(C)(C)[C@@H]5CC[C@]43C)[C@@H]12` [Compound 14], in experiment [3], the “HIV-2 KR.X3-YU-2/V3 less sensitive compared to HIV-2 KR.X3” value was “approximately 5 fold”. In experiment [2], the “reduction of anti-HIV-2 activity after glycine addition compared to precursor” value is “approximately 2 fold”. As to `C=C(C)[C@@H]1CC[C@]2(C(=O)NCCCCCCCC(=O)N[C@@H](CC(C)C)[C@H](O)CC(=O)O)CC[C@]3(C)[C@H](CC[C@@H]4[C@@]5(C)CC[C@H](O)C(C)(C)[C@@H]5CC[C@]43C)[C@@H]12` [Compound 17, reference compound], the “anti-HIV-2 activity less potent than its anti-HIV-1 activity” value in experiment [2] (HIV-2 KR.X3 versus HIV-1 NL4-3) is reported as “about 70 times”. Consider `C=C(C)[C@@H]1CC[C@]2(C(=O)NCCCCCC(=O)N[C@@H](Cc3ccc(O)cc3)C(=O)O)CC[C@]3(C)[C@H](CC[C@@H]4[C@@]5(C)CC[C@H](O)C(C)(C)[C@@H]5CC[C@]43C)[C@@H]12` [Compound 19], for which, in experiment [1], the “IC50 (µM) HIV-1 NL4-3” value is “Inactive”. For the compound `C=C(C)[C@@H]1CC[C@]2(C(=O)NCCCCCC(=O)NCC(=O)NCC(=O)O)CC[C@]3(C)[C@H](CC[C@@H]4[C@@]5(C)CC[C@H](O)C(C)(C)[C@@H]5CC[C@]43C)[C@@H]12` [Compound 21], in experiment [2], the “less potent against HIV-2 than 9” value was “approximately 10 fold”. Turning to `C=C(C)[C@@H]1CC[C@]2(C(=O)O)CC[C@]3(C)[C@H](CC[C@@H]4[C@@]5(C)CC[C@H](OC(=O)CC(C)(C)C(=O)O)C(C)(C)[C@@H]5CC[C@]43C)[C@@H]12` [Compound 22, 3-O-(3’,3’-dimethylsuccinyl)-betulinic acid, reference compound], the “IC50 (µM) HIV-2 KR.X3” value in experiment [2] is recorded as “did not inhibit HIV-2 replication; also recorded: Inactive”.
